Like-named read-outs stand apart in the source and are kept apart here.
Columns and labels:
[1] = Plasma protein binding of brigatinib by rapid equilibrium dialysis of participants' plasma samples; assay type: in vitro ADME, human; conditions: for fraction unbound: human, plasma, oral, 90 mg, pooled 2, 8, 24 h postdose
Protocol: (§1) Blood samples were collected before brigatinib administration (predose) and at 0.5, 1, 1.5, 2, 2.5, 3, 4, 6, 8, 12, 24, 36, 48, 72, 96, 120, 144, 168, and 192 hours following brigatinib administration to measure brigatinib plasma concentrations. Samples to assess brigatinib plasma protein binding were collected at 2, 8, and 24 hours postdose.
Free fractions of brigatinib in plasma samples were determined as previously reported. Briefly, free brigatinib was separated from protein-bound brigatinib by rapid equilibrium dialysis of plasma samples against warm (37° C) phosphate-buffered saline using the Thermo Scientific Single-Use Rapid Equilibrium Dialysis kit (Thermo Fisher Scientific, Waltham, MA) according to the manufacturer’s specifications. […] After incubation, samples were analyzed for brigatinib concentrations using liquid chromatography with tandem mass spectrometry as previously reported using a dual-range assay with a lower limit of quantitation of 0.100 ng/mL and an upper limit of quantitation of […].
(§2) The PK-evaluable population was defined as participants who received the single dose of brigatinib, had no major protocol deviations that affected the PK analyses, and had sufficient data to calculate PK parameters. Individual participant brigatinib plasma concentration-time profiles were analyzed via noncompartmental analysis using Phoenix WinNonLin version 6.4 (Certara, Inc., Princeton, NJ) to calculate plasma PK parameters. Plasma PK parameters calculated for brigatinib included maximum observed plasma concentration (Cmax), time to first maximum observed plasma concentration (Tmax), area under the plasma concentration-time curve from time 0 to the time of the last measurable concentration (AUC0−last), area under the plasma concentration-time curve from time 0 to infinity (AUC0−∞), terminal elimination half-life (t1/2), apparent oral clearance (CL/F), and apparent volume of distribution during the terminal disposition phase (Vz/F). The fraction of unbound brigatinib in plasma was calculated using the following formula: % free (unbound) = [free brigatinib concentration measured in buffer after dialysis] / [total brigatinib concentration measured in plasma] × 100. Unbound brigatinib PK parameters were derived from the following formula (except for the unbound CL/F and unbound Vz/F, which were calculated as total CL/F or total Vz/F divided by the individual participant’s overall mean fraction unbound): unbound PK parameter = (PK parameter based on total concentrations) × (individual participant’s overall mean fraction unbound value).

[2] = Single oral 90-mg dose plasma PK in participants with chronic hepatic impairment and matched healthy participants; assay type: in vivo, human; conditions: for Tmax / half-life / AUC(0-t) / AUC(0-inf): human, plasma, po, 90 mg; for Tmax / half-life / AUC(0-t) / AUC(0-inf) / Tmax, median (range) / CL/Fu, unbound apparent oral clearance, geometric mean (geometric %CV) / Vz/Fu, unbound apparent volume of distribution, geometric mean (geometric %CV) / Cmax,u, geometric mean (geometric %CV): single oral 90 mg; for Tmax / Tmax, median (range): fasted; for Tmax: read-out: Tmax, median (range); for half-life: read-out: t1/2, terminal elimination half-life, geometric mean (geometric %CV) (converted); for AUC(0-t) / AUC(0-inf) / Cmax,u, geometric mean (geometric %CV): unbound; for AUC(0-t): read-out: AUC0−last,u, geometric mean (geometric %CV); for AUC(0-inf): read-out: AUC0−∞,u, geometric mean (geometric %CV)
Protocol: This open-label, parallel-group, inpatient, nonrandomized study was performed at 1 clinical study site, the Orlando Clinical Research Center (Orlando, FL, USA), and evaluated the PK of brigatinib after administration of a single oral 90-mg dose in participants with chronic hepatic impairment and in healthy participants with normal hepatic function. The study consisted of a screening period of up to 22 days and a single treatment and assessment period that included a 10-day (9-night) inpatient stay (Day −1 to Day 9). On the morning of Day 1, each participant received a single oral dose of 90 mg brigatinib under fasting conditions with approximately 240 mL of water. Fasting was required for approximately 10 hours before study drug dosing, for approximately 4 hours postdose, and for at least 8 hours before clinical laboratory tests. Meals were standardized for all participants. Water was permitted ad libitum except for the period between approximately 1 hour before and 1 hour after dosing. Participants remained in the clinic through 192 hours postdose for PK sample collection and were discharged from the clinical research site on Day 9.
as §1
Plasma samples were analyzed for brigatinib concentrations using a previously reported dual-range assay with a lower limit of quantitation of 0.100 ng/mL and an upper limit of quantitation of 2500 ng/mL [14].
as §2
Descriptive statistics, including mean, standard deviation (SD), percent coefficient of variation (%CV), and median, minimum, and maximum values, were calculated for each time point for plasma brigatinib concentrations for the healthy participant and each Child-Pugh group. Arithmetic means, SD, %CV, median, minimum, and maximum values, and the number of observations were calculated for the PK parameters. Geometric mean and geometric %CV were derived for all parameters, except Tmax, which was reported as median (minimum–maximum). Statistical comparisons of unbound brigatinib PK parameters were made among the hepatic function groups (ie, healthy participants, Child-Pugh classes A, B, and C) using an analysis of variance. […]

[3] = tested on: ALK-positive metastatic NSCLC; design: method as in PMID 36065449; conditions: 180 mg QD with 7-day lead-in at 90 mg QD; median follow-up 28.3 months; cited from earlier work
TKI-naive ALK+ NSCLC = tested on: TKI-naive ALK+ NSCLC; design: method as in PMID 34537440; conditions: 95% CI 0.35–0.66; P < 0.0001; cited from earlier work
[4] = design: method as in PMID 27836716, PMID 29915924; conditions: cited from earlier work
[5] = design: method as in PMID 30570839; conditions: versus fasted conditions; healthy participants; cited from earlier work
CYP2C8 = tested on: CYP2C8; design: method as in PMID 31287236; conditions: cited from earlier work
CYP3A = tested on: CYP3A; design: method as in PMID 31287236; conditions: cited from earlier work
[6] = mild (Child-Pugh A) vs normal hepatic function
[7] = moderate (Child-Pugh B) vs normal hepatic function
[8] = severe (Child-Pugh C) vs normal hepatic function

## COc1cc(N2CCC(N3CCN(C)CC3)CC2)ccc1Nc1ncc(Cl)c(Nc2ccccc2P(C)(C)=O)n1 [brigatinib]
[1]; 2, 8 and 24 h postdose within each hepatic function group
  concentration dependence of plasma protein binding: not concentration-dependent
[1]; Child-Pugh C vs healthy participants
  mean fraction unbound, Child-Pugh C relative to healthy participants: 2.7 fold
[1]; Child-Pugh A, mild hepatic impairment (n=6), read-out: mean fraction unbound (free) in plasma
  fraction unbound: 0.111
[1]; Child-Pugh A, read-out: pooled mean ± SD fraction unbound (converted)
  fraction unbound: 0.111
[1]; Child-Pugh B, moderate hepatic impairment (n=6), read-out: mean fraction unbound (free) in plasma
  fraction unbound: 0.108
[1]; Child-Pugh B, read-out: pooled mean ± SD fraction unbound (converted)
  fraction unbound: 0.108
[1]; Child-Pugh C, severe hepatic impairment (n=6), read-out: mean fraction unbound (free) in plasma
  fraction unbound: 0.231
[1]; Child-Pugh C, read-out: pooled mean ± SD fraction unbound (converted)
  fraction unbound: 0.231
[1]; healthy participants, normal hepatic function (n=9), read-out: mean fraction unbound (free) in plasma
  fraction unbound: 0.085
[1]; healthy participants, read-out: pooled mean ± SD fraction unbound (converted)
  fraction unbound: 0.085
[2]; Child-Pugh C vs healthy participants with normal hepatic function
  geometric mean AUC0−last,u higher than in healthy participants: 34%
[2]; mild (Child-Pugh A) hepatic impairment (n=6)
  Tmax: 1.75 h
[2]; severe (Child-Pugh C) hepatic impairment (n=6)
  Tmax: 0.5 h
[2]; mild (Child-Pugh A) (n=6)
  half-life: 47 h
  AUC(0-t): 522 ng·h/mL
  AUC(0-inf): 539 ng·h/mL
  CL/Fu, unbound apparent oral clearance, geometric mean (geometric %CV): 167 (24.9) L/h
  Vz/Fu, unbound apparent volume of distribution, geometric mean (geometric %CV): 11,300 (45.8) L
  Cmax,u, geometric mean (geometric %CV): 28.7 (9.5) ng/mL
[2]; moderate (Child-Pugh B) (n=6)
  half-life: 48.7 h
  AUC(0-t): 578 ng·h/mL
  AUC(0-inf): 601 ng·h/mL
  CL/Fu, unbound apparent oral clearance, geometric mean (geometric %CV): 150 (39.8) L/h
  Vz/Fu, unbound apparent volume of distribution, geometric mean (geometric %CV): 10,500 (29.5) L
  Cmax,u, geometric mean (geometric %CV): 27.8 (24.8) ng/mL
[2]; normal hepatic function (n=9)
  half-life: 47.6 h
  AUC(0-t): 581 ng·h/mL
  AUC(0-inf): 603 ng·h/mL
  Tmax, median (range): 2.00 (1.00‒6.00) h
  CL/Fu, unbound apparent oral clearance, geometric mean (geometric %CV): 149 (25.0) L/h
  Vz/Fu, unbound apparent volume of distribution, geometric mean (geometric %CV): 10,200 (31.0) L
  Cmax,u, geometric mean (geometric %CV): 30.3 (27.2) ng/mL
[2]; severe (Child-Pugh C) (n=6)
  half-life: 51 h
  AUC(0-t): 781 ng·h/mL
  AUC(0-inf): 829 ng·h/mL
  CL/Fu, unbound apparent oral clearance, geometric mean (geometric %CV): 109 (20.0) L/h
  Vz/Fu, unbound apparent volume of distribution, geometric mean (geometric %CV): 7,990 (33.2) L
  Cmax,u, geometric mean (geometric %CV): 50.0 (34.5) ng/mL
[2]; [6]
  AUC0−last,u geometric LSM ratio (90% CI): 89.77 (70.37–114.52) %
  AUC0−∞,u geometric LSM ratio (90% CI): 89.32 (69.79–114.31) %
  Cmax,u geometric LSM ratio (90% CI): 94.75 (75.36–119.12) %
[2]; [7]
  AUC0−last,u geometric LSM ratio (90% CI): 99.41 (77.93–126.82) %
  AUC0−∞,u geometric LSM ratio (90% CI): 99.55 (77.78–127.41) %
  Cmax,u geometric LSM ratio (90% CI): 92.01 (73.18–115.68) %
[2]; [8]
  AUC0−last,u geometric LSM ratio (90% CI): 134.38 (105.34–171.43) %
  AUC0−∞,u geometric LSM ratio (90% CI): 137.41 (107.37–175.86) %
  Cmax,u geometric LSM ratio (90% CI): 165.26 (131.44–207.78) %
[2]; moderate (Child-Pugh B) hepatic impairment (n=6)
  Tmax, median (range): 2.00 (0.50‒3.00) h
[3]
  IRC-assessed confirmed objective response rate (ORR): 56%
  IRC-assessed median progression-free survival (PFS): 16.7 months
TKI-naive ALK+ NSCLC
  PFS hazard ratio, brigatinib compared with crizotinib: 0.48
[4]
  mean plasma terminal elimination half-life: approximately 25 hours
[5]
  effect of a high-fat, high-calorie meal on total systemic exposure (AUC): no clinically meaningful effect
CYP2C8
  effect of a strong CYP2C8 inhibitor on brigatinib systemic exposure: no clinically relevant effect
CYP3A
  decrease of AUC0−∞ with the strong CYP3A inducer rifampicin: 80%
  increase of AUC0−∞ with the strong CYP3A inhibitor itraconazole: 101%

From paper PMC10289985, “Brigatinib pharmacokinetics in patients with chronic hepatic impairment” (Investigational New Drugs, 2023)
